{"source": "patent US12391646B2", "about": "“Using adiponectin receptor agonists to treat inflammation and bone diseases in diabetes” (Trustees of Tufts College, priority 2020, dated 2025)", "key": {"[1]": {"system": "mice with LPS-induced endotoxemia", "experiment": "LPS-induced endotoxemia in WT mice", "assay_type": "in vivo, C57BL/6 mice", "protocol": "FIG. 4 AdipoAI protects against LPS-induced endotoxemia. Endotoxemia was induced in WT mice by intraperitoneal injection with LPS ([…]), and control littermates were administered with equivalent volumes of PBS. APR or AdipoAI were orally gavaged into mice for 24 hours before LPS challenge and control animals were administered with equivalent volumes of DMSO. (a) mRNA expression levels of pro-inflammatory cytokines in lung, spleen, liver and WAT were measured by qRT-PCR and normalized with GAPDH mRNA levels. Data are shown as mean±SEM (n=6). (b) Survival curve of mice with endotoxemia (n=12). (c) Serum levels of IL-6 and IL-1β were measured by ELISA. Data are expressed as mean±SEM (n=6). (d) Histopathology for lung, spleen, liver and WAT tissues isolated from APR- or AdipoAI-treated mice 24 h before LPS challenge (n=6). Upper panel: Hematoxylin and cosin staining; Lower panel: Immunohistochemical staining for macrophage marker F4/80. Red arrow indicates F4/80 positive cells. One-way ANOVA test for multiple-group comparisons, * vs. DMSO+PBS group, # vs. DMSO+LPS group. */#P<0.05, significant differences between each indicated group. ns, not significant.\nThe Ethics Committee on the Use and Care of Animals at Tufts University approved the study protocol (Boston, MA, USA). The animals received humane care according to the criteria outlined in the Guide for the Care and Use of Laboratory Animals prepared by the National Academy of Sciences and published by the National Institutes of Health. All experiments involving animals or animal tissue are reported in compliance with the guidelines of ARRIVE and BJP (Kilkenny et al., 2010; McGrath and Lilley, 2015). Experimental protocols and design adhere to BJP guidelines (Curtis et al., 2015). Wild-type (WT, C57BL/6J, Jax #000664), DIO (Jax #380050), and APN KO (Jax #008195) mice were purchased from the Jackson Laboratory. The DIO mice were fed with a high-fat diet (containing 60% kcal from fat; Jackson Laboratory) at 6 weeks of age and later. The WT mice were fed with ordinary diet as normal chow (NC)-fed mice, and APN KO mice were maintained and fed with an NC diet as previously described (Tu et al., 2011). For the LPS-induced endotoxemia model, male C57BL/6 mice aged 8 weeks received oral gavage with APR (50 mg/kg body weight) or AdipoAI (25 mg/kg body weight) for 24 h before by LPS (20 mg/kg body weight) treatment which was administered intraperitoneally whereas control animals were treated with equivalent volumes of normal PBS. Mouse survival in each group was monitored and recorded up to 84 h. All mice were killed at 1 h for detection of activation of inflammatory genes, at 6 h for determination of inflammatory factors in serum, and at 24 h for histological evaluation. Animal data were excluded from experiments based on pre-established criteria of visible abnormal tissue structure during sample harvest or other health issues, including fighting wounds."}, "[2]": {"system": "peritoneal macrophages (PEMs)", "experiment": "IL-6 and IL-1β production by peritoneal macrophages isolated from AdipoAI-treated mice", "assay_type": "in vivo, C57BL/6J mice", "conditions": "i.p., 20 mg/kg body weight as printed"}, "LPS-induced BMMs": {"system": "LPS-induced BMMs", "experiment": "ELISA of IL-6 and IL-1β in supernatants of LPS-induced BMMs", "assay_type": "cell-based, C57BL/6J mice", "conditions": "AdipoAI 5 μM 24 h then LPS 6 h", "protocol": "FIG. 2 AdipoAI suppresses LPS-stimulated inflammatory responses in macrophages. (a) Raw264.7 cells or (b) BMMs were pretreated with APR (20 μM) or AdipoAI (5 μM) for 24 h followed by incubation with LPS (100 ng/mL) for additional 6 h for the measurement of IL-6 and IL-1β in supernatants by ELISA. Data were expressed as the mean±SEM at five biological independent experiments. One-way ANOVA test for multiple-group comparisons, * vs. LPS group, *P<0.05, significant differences between each indicated group. (c) PEMs were isolated from C57BL/6J mice (n=5 mice/group) were injected i.p. with ImL 4% thioglycolate solution or AdipoAI (25 mg/kg) for the measurement of IL-6 and IL-1β. The amounts of IL-6 and IL-1β in supernatant were measured by ELISA. Data were expressed as the mean±SEM (n=5). Two-tailed Student's t-test for two groups, *P<0.05, significant differences between each indicated group. (d-f) Impact of AdipoAI on basal (d) and LPS-induced expression of an array of proinflammatory cytokines, chemokines, and receptors (e,f) in Raw264.7 cells (4 groups and 3 biological replicates/group). Data analyses were performed according to the manufacturer's instructions with their web-based software package (www.qiagen.com/us/shop/genes-and-pathways/data-analysis-center overview-page/). […]"}, "[3]": {"system": "LPS-stimulated bone marrow-derived macrophages (BMMs)", "experiment": "qRT-PCR of IL-6 and IL-1β mRNA in LPS-stimulated BMMs", "assay_type": "cell-based, C57BL/6J mice", "conditions": "AdipoAI 5 μM compared with compound 5 (5 μM) and APR (20 μM)"}}, "data": [{"smiles": "COc1ccc(CN2CCC(NC(=O)COc3ccc(C(=O)c4ccc(Cl)cc4)cc3)CC2)cc1", "note": "[Compound 3]", "values": [{"measurement": "serum levels of IL-6 and IL-1β", "setting": "[1]; 6 h post-LPS administration", "result": "reduced serum levels of pro-inflammatory cytokines IL-6 and IL-1β"}, {"measurement": "lung histopathology", "setting": "[1]; 24 h, LPS-challenged mice", "result": "fewer lung lesions and decreased inflammatory cell infiltration"}, {"measurement": "survival rate", "setting": "[1]; 84 h post-LPS challenge, vehicle 12.5%", "result": 40, "unit": "%"}, {"measurement": "LPS-induced spleen, liver and WAT injury and inflammatory responses", "setting": "[1]; LPS-challenged mice", "result": "alleviated"}, {"measurement": "c-Maf mRNA and protein levels in lung, spleen, liver and WAT", "setting": "[1]; LPS-challenged mice, qPCR and IHC", "result": "decreased"}, {"measurement": "expression of TNF-α in tissues", "setting": "[1]; LPS-induced endotoxemia mice (sentence also covers DIO mice)", "result": "did not inhibit the expression of TNF-α"}, {"measurement": "mRNA levels of proinflammatory genes in lung, spleen, WAT, liver", "setting": "[1]; oral gavage 24 h before LPS challenge", "result": "decreased mRNA levels of proinflammatory genes"}, {"measurement": "production of IL-6 and IL-1β by PEMs from treated mice", "setting": "[2]", "result": "reduced IL-6 and IL-1β"}, {"measurement": "IL-6 and IL-1β protein levels (ELISA)", "setting": "LPS-induced BMMs", "result": "decreased IL-6 and IL-1β protein levels"}, {"measurement": "inhibition of LPS-stimulated IL-6 and IL-1β expression in BMMs", "setting": "[3]", "result": "strongest inhibitory effects"}]}]}
